The source of these data is ChEMBL document CHEMBL1150254, “Dihydroxystyrene metabolites from an association of the sponges Poecillastra wondoensis and Jaspis sp” (J Nat Prod, 2008).

For assay [1], the target named is Isocitrate lyase (Candida albicans, UniProt Q9P8Q7). The experiment in a line: Inhibition of Candida albicans isocitrate lyase.
For assay [2], the system named is A549. The experiment in a line: Antitumor activity against human A549 cells. In kind it is functional, cell-based.
Assay [3] concerns K562. Description: Antitumor activity against human K562 cells. It counts as functional, cell-based.
A short description of assay [4]: Inhibition of Staphylococcus aureus sortase A.

Molecules are shown by their SMILES. Activity calls are given as the source filed them. The calls are words filed in the database; no cut-off is given here.

Isocitrate lyase, sequence (Q9P8Q7 whole entry): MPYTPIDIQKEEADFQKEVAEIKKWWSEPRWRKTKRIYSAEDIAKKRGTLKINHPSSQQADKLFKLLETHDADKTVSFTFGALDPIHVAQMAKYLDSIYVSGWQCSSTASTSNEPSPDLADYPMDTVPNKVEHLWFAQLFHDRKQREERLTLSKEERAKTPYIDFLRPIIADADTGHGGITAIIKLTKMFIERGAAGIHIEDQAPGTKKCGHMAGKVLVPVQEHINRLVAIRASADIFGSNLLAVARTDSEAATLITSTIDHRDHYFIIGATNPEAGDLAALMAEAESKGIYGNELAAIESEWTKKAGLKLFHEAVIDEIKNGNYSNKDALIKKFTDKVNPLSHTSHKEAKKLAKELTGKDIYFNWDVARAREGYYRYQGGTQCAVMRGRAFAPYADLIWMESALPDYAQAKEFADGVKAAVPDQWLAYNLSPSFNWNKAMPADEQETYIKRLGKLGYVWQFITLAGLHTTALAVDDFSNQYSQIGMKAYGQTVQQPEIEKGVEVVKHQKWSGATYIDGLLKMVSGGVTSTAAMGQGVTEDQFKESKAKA

In turn, `C=C(CC(=O)O)C(=O)O` [ITACONATE] gave an IC50 in assay [1] of 44.6 µM.

In the case of `O=S(=O)(O)O/C=C/c1ccc2c(c1)OC(C(O)c1ccc(O)c(O)c1)O2` (centres undefined), the outcome in assay [2] and in assay [3] was inactive.

Take `CN(C)C(=N)N.O=S(=O)(O)O/C=C/c1ccc2c(c1)OC(C(O)c1ccc(O)c(O)c1)O2` (centres undefined) [listing 1 of 2 here]: the result in assay [2] and in assay [3] was inactive.

For the compound `CN(C)C(=N)N.CN(C)C(=N)N.O=S(=O)(O)O/C=C/c1ccc(OC2Oc3ccc(/C=C/OS(=O)(=O)O)cc3OC2c2ccc(O)c(O)c2)c(O)c1` (centres undefined) [listing 1 of 2 here], the half-inhibitory concentration (IC50) in assay [1] was over 259 µM; in assay [4], over 200 mg/L.

As to `O=S(=O)([O-])O/C=C/c1ccc2c(c1)OC(c1ccc(O)c(O)c1)C(OS(=O)(=O)[O-])O2.[Na+].[Na+]` (centres undefined), the values for the IC50 in assay [1] and in assay [4] were 341 µM and over 200 mg/L, respectively.

Consider `CN(C)CCc1cn(C(c2ccc(O)c(O)c2)C2Oc3ccc(/C=C/OS(=O)(=O)[O-])cc3O2)cn1.[Na+]` (centres undefined), for which the values for the half-maximal inhibitory concentration (IC50) in assay [1] and in assay [4] were over 381 µM and over 200 mg/L, respectively.

In the case of `CN(C)CCc1cn(C(c2ccc(O)c(O)c2)C2Oc3ccc(/C=C/OS(=O)(=O)[O-])cc3O2)cn1.Cl.[Na+]` (mixture of isomers), the half-inhibitory concentration (IC50) was over 356 µM in assay [1] and over 200 mg/L in assay [4].

On to `CN(C)CCc1cn(C(c2ccc(O)c(O)c2)C2Oc3ccc(/C=C\OS(=O)(=O)O)cc3O2)cn1` (centres undefined), for which the result in assay [2] and in assay [3] was inactive.

For `O=S(=O)([O-])O/C=C/c1ccc2c(c1)OC(C(O)c1ccc(O)c(O)c1)O2.[Na+]` (centres undefined), the results for the half-maximal inhibitory concentration (IC50) in assay [1] and in assay [4] were 306 µM and over 200 mg/L, respectively.

For `O=S(=O)([O-])O/C=C/c1ccc(OC2Oc3ccc(/C=C/OS(=O)(=O)[O-])cc3OC2c2ccc(O)c(O)c2)c(O)c1.[Na+].[Na+]` (centres undefined), the figures for the IC50 in assay [1] and in assay [4] were 271 µM and 163.5 mg/L, respectively.

Regarding `O=S(=O)([O-])O/C=C/c1ccc(O)c(O)c1.[Na+]` [JASPISIN], the half-inhibitory concentration (IC50) is over 787 µM in assay [1] and 14.6 mg/L in assay [4].

For `CN(C)CCc1cn(C(c2ccc(O)c(O)c2)C2Oc3ccc(/C=C\OS(=O)(=O)[O-])cc3O2)cn1.Cl.[Na+]` (centres undefined), the IC50 is 164 µM in assay [1] and 68.3 mg/L in assay [4].

Consider `CN(C)C(=N)N.O=S(=O)(O)O/C=C/c1ccc2c(c1)OC(C(O)c1ccc(O)c(O)c1)O2` (centres undefined) [listing 2 of 2 here], for which the figures for the IC50 in assay [1] and in assay [4] were over 426 µM and 82.4 mg/L, respectively.

Regarding `O=S(=O)(O)O/C=C/c1ccc(OC2Oc3ccc(/C=C/OS(=O)(=O)O)cc3OC2c2ccc(O)c(O)c2)c(O)c1` (centres undefined), the outcome in assay [2] and in assay [3] was inactive.

Take `O=S(=O)([O-])O/C=C\c1ccc(O)c(O)c1.[Na+]` [ISOJASPISIN]: the half-inhibitory concentration (IC50) in assay [1] was over 787 µM; in assay [4], 34.2 mg/L.

Consider `CN(C)CCc1cn(C(c2ccc(O)c(O)c2)C2Oc3ccc(/C=C\OS(=O)(=O)[O-])cc3O2)cn1.[Na+]` (centres undefined), for which the IC50 in assay [1] is 91.3 µM; in assay [4], over 200 mg/L.

In the case of `O=S(=O)([O-])O/C=C/c1ccc(OC2Oc3cc(/C=C/OS(=O)(=O)[O-])ccc3OC2c2ccc(O)c(O)c2)c(O)c1.[Na+].[Na+]` (centres undefined), the outcome in assay [2] and in assay [3] was inactive. Further, the IC50 is 64.2 µM in assay [1] and over 200 mg/L in assay [4].

Consider `CN(C)C(=N)N.CN(C)C(=N)N.O=S(=O)(O)O/C=C/c1ccc(OC2Oc3ccc(/C=C/OS(=O)(=O)O)cc3OC2c2ccc(O)c(O)c2)c(O)c1` (centres undefined) [listing 2 of 2 here], for which the result in assay [2] and in assay [3] was inactive.

Take `COC(OC)C(OC)c1ccc(O)c(O)c1` (centres undefined): the IC50 was 126 µM in assay [1] and over 200 mg/L in assay [4].

Broadly, the IC50 is the midpoint of a concentration-inhibition curve. Low values mean greater potency, high ones weaker potency.
